Values quoted from earlier work, collected in US8841262B2, “Agent for inhibiting peritoneal membrane thickening” (CCI Corporation, priority 2009, dated 2014).

Columns and labels:
[1] = system: vascular endothelial growth factor (VEGF); details: administration of TNP-470, reported in Non-Patent Literature 1
[2] = system: peritoneal membrane thickening; details: ganciclovir infused into the abdominal cavity, in 2 weeks; reported in Non-Patent Literature 3

| SMILES | myofibroblastic cell proliferation [1] | neoangiogenesis [1] | peritoneal membrane thickening after chlorhexidine [2] |
| --- | --- | --- | --- |
| CO[C@@H]1[C@H](OC(=O)NC(=O)CCl)CC[C@]2(CO2)[C@H]1[C@@]1(C)O[C@@H]1CC=C(C)C [TNP-470] | suppression | inhibition | – |
| Nc1nc(O)c2ncn(COC(CO)CO)c2n1 [ganciclovir] | – | – | alleviated |
